# Data published in patent US20250270170A1, “2,3-DIMETHOXY-5-METHYL-1,4-BENZOQUINONE ALKYL ALCOHOL DERIVATIVE AND USE THEREOF” (BEIJING ANJIANXI BIO-MEDICAL TECHNOLOGY CO., LTD., priority 2021, published 2025).
# Values joined by “and” are separate entries in the source; they are usually repeats but may differ in a detail not shown here. Equal values may be shown once.
# Columns and labels:
# NCI-H460 cells = experiment: Flow cytometry for apoptosis detection (Annexin V-FITC/PI), NCI-H460; format: cell-based, human; details: 72 h
# Procedure: (1) Cells were inoculated in a 6-well plate. When the cell growth density was appropriate, four concentrations (0 μM, 10 μM, 30 μM, and 90 μM) of the compound of formula (I) were added, and placed in an incubator at 37° C. with 5% CO2 to continue culturing for 72 hours.
# (2) After reaching the designated time point, the cell culture plate was taken out from the incubator, and placed in a biological safety cabinet. A 4 ml centrifuge tube was taken and marked. The supernatant in the 6-well plate was pipetted out and added to the corresponding 4 ml centrifuge tube. The cells were gently washed with PBS, and the PBS was added to the corresponding centrifuge tube. An appropriate amount of trypsin was added to each well to digest the cells. When the cells were digested to a moderate degree, the liquid in the centrifuge tube was added to the corresponding well. The cells were gently pipetted with a pipette to disperse the cells, and was pipetted back into the original centrifuge tube. The tube was immediately centrifuged at 1500 rpm for 5 minutes. Then, the supernatant was discarded and the precipitate was retained.
# (3) 2 ml of PBS was added to the centrifuge tube, which was centrifuged again at 1000 rpm for 5 minutes. The supernatant was discarded. This step was repeated again.
# (4) The cells were suspended with 1× Binding buffer, and the cell concentration was adjusted to approximately 1×10^6 cells/ml. 100 μl of cell suspension was added to the flow cytometry tube, and 5 μl of PI and 5 μl of Annexin V-FITC were added to each tube. The cells were gently vortexed, and incubated at room temperature in dark for 15 min.
# (5) 400 μl of 1× Binding buffer was further added to each tube, and the detection was performed on the flow cytometer (the detection was in need to be completed within 1 hour).
# We used AnnexinV-FITC and PI double staining method for apoptosis staining. FL1 channel was selected for FITC, and FL2 channel was selected for PI. Flow cytometry analysis was used to detect cell apoptosis. Q1, Q2, Q3, and Q4 represented dead cells, late apoptotic cells, early apoptotic cells, and normal cells, respectively (FIG. 7). After treating A549 and NCI-H460 cells with the compound of formula (I) at different concentrations (0 μM, 10 μM, 30 μM, and 90 μM) for 72 h, the flow cytometry results are as follows. Table 1 and Table 2 show the proportions of dead cells, late apoptotic cells, early apoptotic cells, and normal cells after treating the A549 and NCI-H460 cells with different concentrations of the compound of formula (I), respectively.
# [1] = Example 11: body weight in cisplatin-induced acute kidney damage model; format: in vivo, C57BL/6J mice; details: mouse, in vivo
# Procedure: (§1) 42 male C57BL/6J mice (age: 6 to 8 weeks, body weight 18-20 g, certificate number: 11400700238365) were purchased from Si Pei Fu (Beijing) Biotechnology Co., Ltd., and raised in an SPF-grade animal room of the Institute of Materia Medica, Chinese Academy of Medical Sciences, at a temperature of 20 to 25° C., a relative humidity of 40% to 70%, and a cycle of 12 hours of light and 12 hours of dark. The animals had free access to water and food. After 3 days of normal feeding, mice with good physical conditions after the veterinary examination were selected for this assay. Before grouping, a marker was used to mark on the base of the animals' tail. After grouping, each animal was marked with an ear cutout (7 mice in each group).
# (§2) Assay animals: 42 7-week-old male C57 mice were used for animal testing after an adaptive feeding.
# (§3) Group 1: blank control group;
# (§4) The preparation of the R01 formulation administration test solution was the same as that in Example 5: an appropriate amount of the R01 formulation was weighed according to the three dosages set in the assay, respectively, and an appropriate volume of 0.5% CMC-Na aqueous solution was added. The mixture was vortexed and sonicated until mixed evenly, to give the administration test solutions with concentrations of […], respectively, which were ready for use.
# (§5) Animal testing period: 7 days (excluding adaptive feeding), hereinafter referred to as: D1-D7.
# (§6) 1. The first group was a solvent control group: N=7, all mice were males (the same below); • a) 0.5% solution of sodium carboxymethyl cellulose was gavagely administered from D1 to D6 (twice a day for each animal, with an interval of 8 hours between the morning and the afternoon). • b) Physiological saline was intraperitoneally injected in one-time on D4. • c) On D7, blood was collected from the orbit for euthanasia (300 ul of serum was extracted), the left kidney was fixed in formaldehyde, and the right kidney was preserved in liquid nitrogen (WB study may be carried out).
# 3) Each animal was weighed before euthanasia, and the weight was recorded. Two kidneys were weighed as soon as possible after euthanasia, and the weight was recorded. Then, the two kidneys were quickly fixed or cryopreserved, and the kidney coefficient of the mouse was calculated (kidney weight/mouse weight).
# (§7) The body weight of the animals when being grouped for administration in each group was recorded. The body weight and the kidney weight at the end of the assay were also recorded, and the kidney coefficient was calculated. The creatinine and urea nitrogen values in the blood samples sent for testing were recorded. The kidneys were stained with HE and PAS, and the slides were scanned. A report was issued after the pathological analysis.
# (§8) The assay data were calculated and processed statistically using Microsoft Office Excel 2007 software. Unless otherwise specified, the data were expressed as mean±standard error (Mean±SE), and t-test was used for comparison between two groups.
# [2] = tested on: cisplatin-induced acute kidney damage in mice; experiment: Example 11: serum urea nitrogen (Bun) in cisplatin-induced acute kidney damage model; format: in vivo, C57BL/6J mice; details: for serum urea nitrogen value vs model group: P>0.05; for Urea nitrogen (Bun) level after the assay, x (mean): group mean; for Urea nitrogen (Bun) level after the assay, x (mean) / Urea nitrogen (Bun) level after the assay: cisplatin model; for Urea nitrogen (Bun) level after the assay: individual animals No. 1-7
# Procedure: as §1, §2, §3, §4, §5, §6
# 1) The concentrations of urea nitrogen and creatinine in peripheral blood serum were tested.
# as §7, §8
compound,measurement,setting,value
COC1=C(OC)C(=O)C(CCCCCCCCCCOC(=O)Cc2c(C)n(C(=O)c3ccc(Cl)cc3)c3ccc(OC)cc23)=C(C)C1=O [compound of formula (I)],Q1 Gated % (dead cells),NCI-H460 cells; 10 μM,1.72 ± 0.08%
same,Q2 Gated % (late apoptotic cells),NCI-H460 cells; 10 μM,3.23 ± 2.59%
same,Q3 Gated % (early apoptotic cells),NCI-H460 cells; 10 μM,1.55 ± 1.16%
same,Q4 Gated % (normal cells),NCI-H460 cells; 10 μM,93.5 ± 3.82%
same,percentage of apoptosis (total apoptosis),NCI-H460 cells; 10 μM,4.78 ± 3.75
same,Q1 Gated % (dead cells),NCI-H460 cells; 30 μM,1.75 ± 0.45%
same,Q2 Gated % (late apoptotic cells),NCI-H460 cells; 30 μM,4.79 ± 0.37%
same,Q3 Gated % (early apoptotic cells),NCI-H460 cells; 30 μM,5.01 ± 1.70%
same,Q4 Gated % (normal cells),NCI-H460 cells; 30 μM,88.45 ± 2.47%
same,percentage of apoptosis (total apoptosis),NCI-H460 cells; 30 μM,9.8 ± 2.06
same,Q1 Gated % (dead cells),NCI-H460 cells; 90 μM,0.55 ± 0.04%
same,Q2 Gated % (late apoptotic cells),NCI-H460 cells; 90 μM,9.32 ± 0.35%
same,Q3 Gated % (early apoptotic cells),NCI-H460 cells; 90 μM,38.35 ± 2.33%
same,Q4 Gated % (normal cells),NCI-H460 cells; 90 μM,51.85 ± 2.05%
same,percentage of apoptosis (total apoptosis),NCI-H460 cells; 90 μM,47.67 ± 1.99
same,"Body weight after the assay, After x (mean)",[1]; 6 mg/kg,16.2 g
same,"Body weight, Before x- after x",[1]; 6 mg/kg,4.2 g
same,"Body weight after the assay, After x (mean)",[1]; 18 mg/kg,16.2 g
same,"Body weight, Before x- after x",[1]; 18 mg/kg,4.3 g
same,"Body weight after the assay, After x (mean)",[1]; 36 mg/kg,16.1 g
same,"Body weight, Before x- after x",[1]; 36 mg/kg,4.4 g
same,serum urea nitrogen value,"[2]; R01 high-dosage group (36 mg/kg bid) with cisplatin 10 mg/kg, P<0.05",significantly lower than that of the model group
same,serum urea nitrogen value vs model group,[2]; R01 low-dosage group (6 mg/kg bid) with cisplatin 10 mg/kg,no significant difference
same,serum urea nitrogen value vs model group,[2]; R01 medium-dosage group (18 mg/kg bid) with cisplatin 10 mg/kg,no significant difference
same,"Urea nitrogen (Bun) level after the assay, x (mean)",[2]; R01 6 mg/kg,16.1 mg/dL
same,"Urea nitrogen (Bun) level after the assay, x (mean)",[2]; R01 18 mg/kg,16.1 mg/dL
same,"Urea nitrogen (Bun) level after the assay, x (mean)",[2]; R01 36 mg/kg,13.7 mg/dL
same,Urea nitrogen (Bun) level after the assay,"[2]; R01 6 mg/kg, listed as R01, 6 mg/kg",28.3 mg/dL and 29.25 mg/dL and 10.62 mg/dL and 11.72 mg/dL and 13.85 mg/dL and 4.91 mg/dL and 14.1 mg/dL
same,Urea nitrogen (Bun) level after the assay,"[2]; R01 18 mg/kg, listed as R01, 18 mg/kg",13.41 mg/dL and 15.83 mg/dL and 19.59 mg/dL and 14.73 mg/dL and 10.38 mg/dL and 22 mg/dL and 16.55 mg/dL
same,Urea nitrogen (Bun) level after the assay,"[2]; R01 36 mg/kg, listed as R01, 36 mg/kg",12.39 mg/dL and 12.73 mg/dL and 14.32 mg/dL and 14.34 mg/dL and 9.98 mg/dL and 14 mg/dL and 17.8 mg/dL
